Here are results for one compound from EP0974351A2, “Medicament for preventing and treating gastrointestinal damage” (JOUVEINAL, priority 1998, dated 2000).

Assay [1] relates to Anxiety-Related Behavior. The experiment in a line: Elevated plus maze, anxiety-related behavior 8 hours after ethanol withdrawal in mice. Format: in vivo, Male albino mice of the outbred TO strain. The method, then: (§1) Male albino mice of the outbred TO strain (Bantin and Kingman, UK) were used in all studies. The weight ranged from 25 to 35 g, with no more than a 5 g range in any single experiment. The mice were housed, eight per cage, at 21°C ± 1°C, with 55 ± 10% relative humidity, and a 12-hour light/dark cycle with the light phase between 09:00 to 21:00. All mice received ad libitum access to tap water and standard laboratory chow (RM-1, Special Diet Services, UK) until their use in experiments or until their diet was replaced with a liquid diet.
(§2) Ethanol was administered in a liquid diet schedule. All mice received control diet for an initial 2-day period. Ethanol treated mice then received a diet containing 3.5% (v/v) ethanol/water for 2 days, followed by a diet containing 7% ethanol for a further 5 days. The average intake was 22 to 30 g/kg/day. Control groups were pair-fed a control diet, balanced isocalorifically to match the ethanol containing diet. There were no differences in the weights of the ethanol-treated and control mice at the end of the treatment periods. When mice were withdrawn from the ethanol (between 07:00 AM and 09:00 AM), they were provided with tap water until their use in experiments.
(§3) Gabapentin was dissolved in saline, the solution being made freshly each testing day. Intraperitoneal (i.p.) injections of either gabapentin, 10 mL/kg, or saline, were given immediately on withdrawal from the ethanol treatment, in the studies on the handling responses and 2 hours prior to measurement of audiogenic seizures. In the experiments using the elevated plus maze, gabapentin or saline was injected i.p. at 8 hours after the removal of the ethanol diet, and the mice placed on the plus maze 60 minutes after the injections. In the studies on motor co-ordination (ataxia) and on locomotor activity, gabapentin or saline was injected to ethanol-naive chow fed mice immediately before testing. Measurements were then made for 60 minutes for the ataxia study, and for 30 minutes in the case of the locomotor activity.
Mice were withdrawn from the ethanol diet at 7:00 AM and tested for anxiety-related behavior 8 hours later using a murine elevated plus-maze. It was constructed of perspex with two opposing open arms (30 × 5 × 0.25 cm) and two opposing closed arms (30 × 5 × 15 cm) which extended from a central platform (5 × 5 cm). The floor was of matt black perspex. The animals were acclimatized to the experimental room 1 hour prior to experimentation. Experiments were conducted under dim red light, and each 5 minute session was video-taped for later analysis, by an observer unaware of the prior treatment. During this analysis (Observer 3.0, Noldus Information Technology, Wageningen, Netherlands) measurements were made of the time spent on each arm of the maze, the number of entries onto each arm and rearing activity. Measures were also made as described in Table 3.
The results of the handling response ratings were compared by nonparametric two-way analysis of variance, designed for repeat measures on the same animal. The results of the area under the curve calculations were compared by the Mann-Whitney U-test. The convulsion incidence was analyzed by Fisher's exact probability test. […] The ataxia measurements were analyzed by the Mann-Whitney U-test and the locomotor activity by Student's t-test.

The test system of assay [2] is Audiogenic Convulsions. The experiment in a line: Audiogenic seizures after ethanol withdrawal in mice. Format: in vivo, Male albino mice of the outbred TO strain. To be noted: for Percentage of Group Showing Clonic Convulsions: Ethanol Diet, 8 hours from ethanol withdrawal, ethanol/saline 80. Here is the method: as §1, §2, §3
At 8 and 12 hours from ethanol withdrawal, the susceptibility to sound-induced convulsions was measured in separate groups of ten mice. Mice were tested individually in a sound-proof perspex box 30 × 30 × 30 cm containing an electric door-bell. The bell was rung for 2 minutes or until the first signs of convulsions. The number of mice which responded by wild-running and clonic convulsions was counted. The mice were humanely killed as soon as a full convulsion was seen.
The results of the handling response ratings were compared by nonparametric two-way analysis of variance, designed for repeat measures on the same animal. The results of the area under the curve calculations were compared by the Mann-Whitney U-test. The convulsion incidence was analyzed by Fisher's exact probability test. The measurements from the elevated plus maze were subjected to one-way analysis of variance, followed by a Bonuferroni multiple comparison test, comparing all groups to the control group which received saline injections, and also both ethanol treated groups which received gabapentin to the ethanol treated group which received saline. The ataxia measurements were analyzed by the Mann-Whitney U-test and the locomotor activity by Student's t-test.

Assay [3] relates to ethanol-induced gastric lesions. The experiment in a line: Ethanol-induced gastric lesions in rats. Format: in vivo. To be noted: ethanol alone 41.9 ± 3.7. Here is the method:
Male Sprague-Dawley rats weighing 240 to 250 g were fasted for 24 hours and allowed free access to water prior to experiment. All test drugs were given intragastrically. Rats were pretreated with different doses of gabapentin at doses of 40 and 60 mg. Thirty minutes later indomethacin (25 mg/kg) was administered. Another group of rats received 10 mg of gabapentin twice, 3 hours apart, followed by indomethacin administration. Three hours after indomethacin treatment, the rats were killed and gastric lesions were assessed. The severity of the lesions were determined by the measurement of the square area (mm^2) of visible lesions.
To determine the effects of gabapentin on ethanol-induced gastric lesions, rats were pretreated with 1 mL of 70% ethanol, followed by gabapentin at a dose of 40 and 60 mg, respectively. Another group of rats were pretreated by 20 mg of gabapentin given twice, 3 hours apart, followed by ethanol administration. Thirty minutes later, all rats were killed and gastric lesions were assessed.

Turning to `NCC1(CC(=O)O)CCCCC1` [Gabapentin, 1-(aminomethyl)-cyclohexane acetic acid], the “decrease in the percentage time spent on the open arms caused by ethanol withdrawal” value in assay [1] (gabapentin 50 mg/kg i.p. 60 min before test, p <0.05 vs saline) is given as “decreased this effect”; in assay [1] (gabapentin 100 mg/kg i.p. 60 min before test, p <0.01 vs saline), “decreased this effect”. For the same compound, the “mean time on the open arms in control animals” value in assay [1] (gabapentin 100 mg/kg i.p., control diet, mean increased) was “not significantly different from controls with saline”. Also, the “number of protected head dips in control animals” value in assay [1] (gabapentin 100 mg/kg i.p., control diet, p <005 (so in the source)) is on record as “significantly decreased”. Also, the “increase in protected head dips in mice undergoing ethanol withdrawal” value in assay [1] (gabapentin 100 mg/kg i.p., p <0.01 compared with saline) is on record as “significantly reduced”. In addition, the “Percentage of Group Showing Clonic Convulsions” value is on record as 92% in assay [2] (Gabapentin 5 mg/kg i.p. 2 hours before test), 70% in assay [2] (Gabapentin 20 mg/kg i.p.), 40% in assay [2] (Gabapentin 50 mg/kg i.p.) and 30 p <0.01 c.f Ethanol/Saline group % in assay [2] (Gabapentin 100 mg/kg i.p.). Moreover, in assay [2] (any of the doses tested, 12 hours from the end of the ethanol treatment (data not shown)), the “convulsion incidence after the audiogenic stimulus” value was “No effect”. Besides, the area of injury in assay [3] (40 mg gabapentin, 1 mL of 70% ethanol) is given as 24.4 ± 3.5 mm^2; in assay [3] (60 mg gabapentin, 1 mL of 70% ethanol) it was 18.7 ± 2.2 mm^2; in assay [3] (2 doses of 20 mg gabapentin, 3 hours apart, then 1 mL of 70% ethanol, assessed 30 min later) it was 2.1 ± 0.3 mm^2.
